What was measured:
Assay type in all cases: cell-based
Jurkat T cells = assay: Pro-apoptotic activity on Jurkat T cells (FITC-Annexin V / 7-AAD flow cytometry); conditions: Homo sapiens, 72 hours, cells stained with FITC-Annexin V and 7-AAD among total cells, read-out: Cell Apoptosis Effect to Jurkat T Cell (% in 5 μM)
In short: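 Jurkat cells at 1.5×10^5 cells/mL in RPMI/10% FBS treated with compounds at […] or 5 μM final for 72 h at 37° C, vehicle containing 1% DMSO. Stained with FITC-Annexin V and 7-AAD for 15 min at room temperature in pH 7.4 Hepes binding buffer. Apoptosis = % double-stained cells by flow cytometry.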

KMS11 = assay: Apoptosis of lymphoid malignancy cell lines: KMS11; conditions: Homo sapiens, KMS-11; KMS11, Multiple myeloma, 24 hours; read-out: Administration Dose (mean ± SD, μmol/L) Lethal Dose 50 (Apoptosis)
Protocol: (§1) Each of the acute T cell leukemia cell lines Jurkat, Molt4 and CCRF-CEM, the acute B cell leukemia cell line Raji and the […] cell lines KMS11, KMS12BM, KMS26, KMS28BM, and IM9 was re-suspended in 10% FBS-containing RPMI medium at a concentration of 1.5×10^5 cells/mL, and 200 μL of each of the cell suspensions was cultured in a flat bottom 96-well plate (Costar). The acute NK cell lymphoma cell line NK-92MI was re-suspended in α-MEM medium (supplemented with 20% FBS, 1×MEM vitamine solution, 50 μM 2-mercaptoethanol and 1× penicillin/streptomycin) at a concentration of 1.5×10^5 cells/mL, and 200 μL of the cell suspension was cultured in a flat bottom 96-well plate. The cells in each well was treated with 10 μL of each of 0.1, 0.25, 0.5, 0.75 and 1 μM of the compound diluted with RPMI medium, followed by that the cells were incubated in a 5% CO2 incubator at 37° C. for 24 hours. […]
(§2) The cells were collected, and then the apoptosis thereof was analyzed by a flow cytometer after staining with Annexin V-7-AAD. The incubated cells were collected, placed in a 5-mL FACS tube (BD Falcon) and washed with 1 mL of fluorescence activated cell sorting (FACS) buffer (1%. FBS and 0.1% sodium azaide in PBS). […] The stained cells were suspended in 0.3 mL of FACS buffer, and then analyzed by a flow cytometer. […]

IM9 = assay: Apoptosis of lymphoid malignancy cell lines: IM9; conditions: Homo sapiens, IM-9; IM9, Multiple myeloma, 24 hours; read-out: Administration Dose (mean ± SD, μmol/L) Lethal Dose 50 (Apoptosis)
Protocol: (§3) Each of the acute T cell leukemia cell lines Jurkat, Molt4 and CCRF-CEM, the acute B cell leukemia cell line Raji and the […] cell lines KMS11, KMS12BM, KMS26, KMS28BM, and IM9 was re-suspended in 10% FBS-containing RPMI medium at a concentration of 1.5×10^5 cells/mL, and 200 μL of each of the cell suspensions was cultured in a flat bottom 96-well plate (Costar). The acute NK cell lymphoma cell line NK-92MI was re-suspended in α-MEM medium (supplemented with 20% FBS, 1×MEM vitamine solution, 50 μM 2-mercaptoethanol and 1× penicillin/streptomycin) at a concentration of 1.5×10^5 cells/mL, and 200 μL of the cell suspension was cultured in a flat bottom 96-well plate. The cells in each well was treated with 10 μL of each of 0.1, 0.25, 0.5, 0.75 and 1 μM of the compound diluted with RPMI medium, followed by that the cells were incubated in a 5% CO2 incubator at 37° C. for 24 hours. In a vehicle control group, cells were treated with 10 μL of medium containing 0.05% dimetylsulfoxide (DMSO, Sigma).
(§4) The cells were collected, and then the apoptosis thereof was analyzed by a flow cytometer after staining with Annexin V-7-AAD. The incubated cells were collected, placed in a 5-mL FACS tube (BD Falcon) and washed with 1 mL of fluorescence activated cell sorting (FACS) buffer (1%. FBS and 0.1% sodium azaide in PBS). The cells were re-suspended in 0.1 mL of FACS buffer, followed by that the cells were treated and stained with phycoerythrin-Annexin V at room temperature for 10 minutes. After 10 minutes of staining, the cells were treated and stained with 7-AAD at room temperature for 5 minutes. The stained cells were suspended in 0.3 mL of FACS buffer, and then analyzed by a flow cytometer. […] Thus, compounds 065, 108, 229 and 457 of the present invention can be used as a novel anti-lymphoid malignancy drug.

KMS26 = assay: Apoptosis of lymphoid malignancy cell lines: KMS26; conditions: KMS-26; KMS26, Multiple myeloma, 24 hours; read-out: Administration Dose (mean ± SD, μmol/L) Lethal Dose 50 (Apoptosis)
Protocol: as §1, §2

Molt4 = assay: Apoptosis of lymphoid malignancy cell lines: Molt4; conditions: Homo sapiens, MOLT-4; Molt4, Acute T cell leukemia, 24 hours; read-out: Administration Dose (mean ± SD, μmol/L) Lethal Dose 50 (Apoptosis)
Protocol: as §3, §4

CCRF-CEM = assay: Apoptosis of lymphoid malignancy cell lines: CCRF-CEM; conditions: Homo sapiens, Acute T cell leukemia, 24 hours, read-out: Administration Dose (mean ± SD, μmol/L) Lethal Dose 50 (Apoptosis)
Protocol: as §1, §2

Jurkat = assay: Apoptosis of lymphoid malignancy cell lines (Annexin V / 7-AAD): Jurkat; conditions: Homo sapiens, Acute T cell leukemia, 24 hours, read-out: Administration Dose (mean ± SD, μmol/L) Lethal Dose 50 (Apoptosis)
Protocol: as §3, §4

KMS12BM = assay: Apoptosis of lymphoid malignancy cell lines: KMS12BM; conditions: Homo sapiens, KMS-12-BM, Multiple myeloma, 24 hours, read-out: Administration Dose (mean ± SD, μmol/L) Lethal Dose 50 (Apoptosis)
Protocol: as §1, §2

KMS28BM = assay: Apoptosis of lymphoid malignancy cell lines: KMS28BM; conditions: KMS-28BM, Multiple myeloma, 24 hours, read-out: Administration Dose (mean ± SD, μmol/L) Lethal Dose 50 (Apoptosis)
Protocol: as §1, §2

Raji = assay: Apoptosis of lymphoid malignancy cell lines: Raji; conditions: Homo sapiens, Acute B cell leukemia, 24 hours, read-out: Administration Dose (mean ± SD, μmol/L) Lethal Dose 50 (Apoptosis)
Protocol: as §1, §2

NK-92MI = assay: Apoptosis of lymphoid malignancy cell lines: NK-92MI; conditions: Acute NK cell lymphoma, 24 hours, read-out: Administration Dose (mean ± SD, μmol/L) Lethal Dose 50 (Apoptosis)
Protocol: as §1, §2

Cc1cc(C)c(OCC(=O)N/N=C/c2ccc3cc[nH]c3c2)c(C2CCOCC2)c1 [Compound 457, (E)-N′-((1H-indol-6-yl)methylene)-2-(2,4-dimethyl-6-(tetrahydro-2H-pyran-4-yl)phenoxy)acetohydrazide]
cytotoxicity at 5 µM (Jurkat T cells): 100%
EC50 (KMS11): 0.63 ± 0.31 µmol/L
EC50 (IM9): 0.38 ± 0.01 µmol/L
EC50 (KMS26): 0.55 ± 0.12 µmol/L
EC50 (Molt4): 0.25 ± 0.11 µmol/L
EC50 (CCRF-CEM): 0.17 µmol/L
EC50 (Jurkat): 0.2 ± 0.01 µmol/L
EC50 (KMS12BM): 0.22 ± 0.02 µmol/L
EC50 (KMS28BM): 0.47 ± 0.06 µmol/L
EC50 (Raji): 0.68 ± 0.05 µmol/L
EC50 (NK-92MI): 0.46 ± 0.01 µmol/L

Source: patent US9447083B2, “N-acylhydrazone derivatives for selective T cell inhibitor and anti-lymphoid malignancy drug” (CHONG KUN DANG PHARMACEUTICAL CORP., priority 2012, dated 2016)
